Test results taken from patent US20130202594A1, “ALK1 Antagonists and Their Uses in Treating Renal Cell Carcinoma” (priority 2012, published 2013).
Entries after “also recorded” stand apart in the source; their conditions may differ.

Columns and labels:
[1] = system: MDA-MB-231 cell line; assay: MDA-MB-231-Luc orthotopic breast cancer xenograft; format: in vivo, mouse; details: similar experiment; dose levels as low as 3 mg/kg
Text: The MDA-MB-231 breast cancer cell line (derived from ER− cells) was stably transfected with the luciferase gene to allow for the in vivo detection of tumor growth and potential metastasis. In this study, 1×10^6 MDA-MB-231-Luc cells were implanted orthotopically in the mammary fat pad of athymic nude mice (Harlan). Tumor progression was followed by bioluminescent detection using an IVIS Spectrum imaging system (Caliper Life Sciences). An increase in the luminescence (number of photons detected) corresponds to an increase in tumor burden.
Thirty female nude mice were injected with 1×10^6 tumor cells into the mammary fat pad. Three days after tumor implantation the mice were treated with either vehicle control or mALK1-Fc (30 mg/kg) twice per week by subcutaneous (SC) injection. […] This may be expected of an antiangiogenic compound in that tumors may be able to survive to a certain size before requiring new blood vessel formation to support continued growth.

[2] = system: MCF-7 cell line; assay: MCF-7 orthotopic breast cancer xenograft; format: in vivo, mouse; details: 10 or 30 mg/kg twice per week IP
Description: The estrogen-receptor-positive (ER+), luciferase expressing cell line, MCF-7, was also tested in an orthotopic implantation model. In this model, female nude mice are implanted subcutaneously with a 60 day slow release pellet of 17β-estradiol. Two days following pellet implantation, 5×10^6 MCF-7 tumor cells were implanted into the mammary fat pad. Mice were treated twice per week with hALK1-Fc at 3, 10 and 30 mg/kg, or vehicle control, by the IP route. Tumor progression was followed by bioluminescent imaging on a weekly basis with an IVIS-Spectrum imager (Caliper Life Sciences). In vehicle treated mice tumors progressed rapidly until study day 26 (FIG. 15). After day 26, there were fluctuations in tumor luminescence until the conclusion of the study at day 60 (when the estradiol pellets were depleted). These fluctuations are due to a common feature of this model in that the rapid tumor growth can exceed the angiogenic response of the host animals leading to tumor necrosis and a concomitant drop-off in luminescent signal. The remaining cells continue to grow leading to an increased signal.

[3] = target: GDF8 (Homo sapiens, UniProt O14793); assay: Biacore binding to hALK1-Fc: GDF8
Description: (§1) ALK1 is a type 1 receptor for ligands of the TGFβ family. Multiple members of the TGFβ family were tested for binding to a human ALK1-Fc fusion protein, using a Biacore™ system.

[4] = target: T1, BMP10 (Homo sapiens, UniProt O95393); assay: Biacore binding to hALK1-Fc: BMP10
T1 sequence (O95393 317-424): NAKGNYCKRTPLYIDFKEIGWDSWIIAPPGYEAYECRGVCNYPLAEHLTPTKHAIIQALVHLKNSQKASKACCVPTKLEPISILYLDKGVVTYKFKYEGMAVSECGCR
Description: as §1

[5] = Size exclusion chromatography of ALK1-Fc preparations (dimers vs aggregates); format: physicochemical
Description: The R&D Systems material contains approximately 13% aggregated protein, as shown by the peaks on the left hand side of the graph, as well as some lower molecular weight species. The material of SEQ ID NO:3 is greater than 99% composed of dimers of the appropriate molecular size.
In one approach, a number of different cell culture media were tested. […] The resulting material is comprised of greater than 99% dimers. […] Having identified aggregate formation as a significant problem in ALK1-Fc production, it is expected that other approaches may be developed, including approaches that involve additional purification steps (although such approaches may result in lower yield of purified protein).

[6] = target: GDF11 (Homo sapiens, UniProt O95390); assay: Biacore binding to hALK1-Fc: GDF11
Description: as §1

[7] = system: angiogenesis in chick chorioallantoic membrane; assay: CAM (chick chorioallantoic membrane) angiogenesis assay; format: in vivo
Text: In preferred embodiments, an ALK1 ECD polypeptide binds to one or more of GDF5, GDF6, GDF7, BMP9 and BMP10. […] Binding may be assessed using purified proteins in solution or in a surface plasmon resonance system, such as a Biacore™ system. […] Bioassays for angiogenesis inhibitory activity include the chick chorioallantoic membrane (CAM) assay, the mouse corneal micropocket assay, or an assay known in the art for measuring the effect of administering isolated or synthesized proteins on implanted tumors. The CAM assay is described by O'Reilly, et al., in “Angiogenic Regulation of Metastatic Growth” Cell, 1994; 79 (2):315-328. Briefly, 3 day old chicken embryos with intact yolks are separated from the egg and placed in a petri dish. After 3 days of incubation, a methylcellulose disc containing the protein to be tested is applied to the CAM of individual embryos. After 48 hours of incubation, the embryos and CAMs are observed to determine whether endothelial growth has been inhibited. The mouse corneal micropocket assay involves implanting a growth factor-containing pellet, along with another pellet containing the suspected endothelial growth inhibitor, in the cornea of a mouse and observing the pattern of capillaries that are elaborated in the cornea. Other assays are described in the Examples.
VEGF and FGF are well-known to stimulate angiogenesis. A CAM (chick chorioallantoic membrane) assay system was used to assess the angiogenic effects of GDF7.
ALK1-Fc fusions were tested for anti-angiogenic activity in the CAM assay.
ALK1-Fc proteins and a commercially available, anti-angiogenic anti-VEGF monoclonal antibody were compared in the CAM assay. The ALK1-Fc proteins had similar potency as compared to anti-VEGF. The anti-VEGF antibody bevacizumab is currently used in the treatment of cancer and macular degeneration in humans.

[8] = system: SMAD 1/5/8 phosphorylation in HUVEC cells; assay: rhBMP-9 induced SMAD 1/5/8 phosphorylation in HUVEC cells; format: cell-based, human; details: 250 ng/ml, rhBMP-9 50 ng/ml
Description: Activation of SMAD phosphorylation is commonly used to assay activation of upstream activin receptors. ALK1 is known to modulate phosphorylation of SMAD proteins 1,5 and 8 upon activation by its ligand. Here, we added rhBMP-9 (50 ng/ml) to initiate SMAD phosphorylation in HUVEC cells, a human endothelial cell line which innately expresses ALK1 receptor, over a timecourse of 30 minutes. Phosphorylation of SMAD 1/5/8 was seen 5 minutes after treatment of cells with ligand and phosphorylation was maintained for the entirety of the 30 minute period.

Chain of GDF11 (O95390 299-407, species assumed): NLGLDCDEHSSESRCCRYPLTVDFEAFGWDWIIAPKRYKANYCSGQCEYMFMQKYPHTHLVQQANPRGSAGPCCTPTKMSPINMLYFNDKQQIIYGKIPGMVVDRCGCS

With “hALK1-Fc: extracellular domain of human ALK1 (amino acids 22-120) fused to a human IgG1 Fc with a minimal linker (SEQ ID NO:3/14)” the “tumor progression (bioluminescence)” value [1] was “similar, if slightly lesser, effects”, the “tumor size / growth (bioluminescence)” value [2] was “maintain tumor size at a constant level; also recorded: significant growth-delaying effect” and the “binding to hALK1-Fc” value [3] was “failed to show substantial binding”. For the same substance, the Kd [4] was ~3 nM, the dimers [5] was “greater than 99%” and the “binding to hALK1-Fc” value [6] was “failed to show substantial binding”. The “anti-angiogenic effect compared with anti-VEGF monoclonal antibody” value [7] was “comparable to the effects of the anti-VEGF antibody”, the “anti-angiogenic effect on angiogenesis stimulated by VEGF, FGF and GDF7” value [7] was “inhibits angiogenesis stimulated by VEGF, FGF and GDF7” and the “SMAD 1/5/8 phosphorylation” value [8] was “SMAD 1/5/8 phosphorylation was reduced”.
